Data taken from the NIST ThermoML archive (doi:10.1016/j.tca.2015.01.022).
Numbers after ± are expanded uncertainties.

Assay: molar heat capacity at constant pressure
Details: 101.33 kPa, Small (less than 1 g) adiabatic calorimetry

CCCCCCCC[n+]1ccn(C)c1.F[B-](F)(F)F [1-methyl-3-octylimidazolium tetrafluoroborate]
molar heat capacity at constant pressure [J/K/mol]
Details | Crystal | Glass
74.07 K | – | 159.5 ± 0.9
74.59 K | 157.4 ± 0.9 | –
76.42 K | – | 163.4 ± 0.9
76.96 K | 161 ± 0.9 | –
78.77 K | – | 167.3 ± 0.9
79.33 K | 164.5 ± 0.9 | –
79.7 K | 165.1 ± 0.9 | –
80 K | 165.4 ± 1 | 169.5 ± 1
80.09 K | 165.7 ± 0.9 | –
80.17 K | – | 169.7 ± 1
81.13 K | – | 171.2 ± 1
81.61 K | 167.8 ± 0.9 | –
81.71 K | 167.9 ± 0.9 | –
81.87 K | 168.2 ± 0.9 | –
81.93 K | – | 172.6 ± 1
83.39 K | 170.3 ± 1 | –
83.49 K | – | 175 ± 1
83.65 K | 170.6 ± 1 | –
83.69 K | – | 175.5 ± 1
84.09 K | 171.2 ± 1 | –
85.19 K | 172.7 ± 1 | –
85.45 K | 173.2 ± 1 | –
85.46 K | – | 178.2 ± 1
87 K | 175.2 ± 1 | –
87.24 K | – | 181 ± 1
87.26 K | 175.7 ± 1 | –
88.81 K | 177.8 ± 1 | –
89.03 K | – | 183.9 ± 1
89.08 K | 178.2 ± 1 | –
90 K | 179.5 ± 1 | 185.3 ± 1
90.64 K | 180.3 ± 1 | –
90.83 K | – | 186.6 ± 1
90.9 K | 180.7 ± 1 | –
92.07 K | – | 188.5 ± 1
92.47 K | 182.7 ± 1 | –
92.64 K | – | 189.3 ± 1
92.74 K | 183.1 ± 1 | –
93.91 K | – | 191.2 ± 1
94.31 K | 185.2 ± 1 | –
94.58 K | 185.6 ± 1 | –
95.76 K | – | 193.9 ± 1
96.17 K | 187.6 ± 1 | –
96.43 K | 187.9 ± 1 | –
97.6 K | – | 196.8 ± 1.1
98.02 K | 190.1 ± 1 | –
98.29 K | 190.4 ± 1 | –
99.45 K | – | 199.4 ± 1.1
99.89 K | 192.4 ± 1 | –
100 K | 192.5 ± 1.1 | 200.2 ± 1.1
100.16 K | 192.7 ± 1 | –
101.31 K | – | 202.1 ± 1.1
101.76 K | 194.8 ± 1 | –
102.03 K | 195.1 ± 1 | –
103.16 K | – | 204.8 ± 1.1
103.64 K | 197.2 ± 1.1 | –
103.91 K | 197.5 ± 1.1 | –
105.01 K | – | 207.5 ± 1.1
105.53 K | 199.4 ± 1.1 | –
105.8 K | 199.8 ± 1.1 | –
106.87 K | – | 210.2 ± 1.1
107.42 K | 201.7 ± 1.1 | –
107.69 K | 202.1 ± 1.1 | –
108.73 K | – | 212.9 ± 1.1
109.32 K | 204.1 ± 1.1 | –
109.58 K | 204.4 ± 1.1 | –
110 K | 204.9 ± 1.1 | 214.7 ± 1.2
110.6 K | – | 215.5 ± 1.1
111.22 K | 206.4 ± 1.1 | –
111.49 K | 206.7 ± 1.1 | –
112.46 K | – | 218.2 ± 1.2
113.12 K | 208.7 ± 1.1 | –
113.39 K | 209 ± 1.1 | –
114.33 K | – | 220.8 ± 1.2
115.03 K | 210.9 ± 1.1 | –
115.3 K | 211.2 ± 1.1 | –
116.2 K | – | 223.4 ± 1.2
116.94 K | 213.1 ± 1.1 | –
117.21 K | 213.4 ± 1.1 | –
118.07 K | – | 226.1 ± 1.2
118.86 K | 215.4 ± 1.1 | –
119.13 K | 215.7 ± 1.1 | –
119.94 K | – | 228.8 ± 1.2
120 K | 216.7 ± 1.2 | 229 ± 1.2
120.78 K | 217.6 ± 1.2 | –
121.05 K | 218 ± 1.2 | –
121.81 K | – | 231.5 ± 1.2
122.7 K | 219.9 ± 1.2 | –
122.97 K | 220.2 ± 1.2 | –
123.69 K | – | 234.2 ± 1.2
124.63 K | 222.1 ± 1.2 | –
124.9 K | 222.4 ± 1.2 | –
125.57 K | – | 237 ± 1.2
126.55 K | 224.3 ± 1.2 | –
126.83 K | 224.6 ± 1.2 | –
127.44 K | – | 239.7 ± 1.3
128.49 K | 226.5 ± 1.2 | –
128.76 K | 226.8 ± 1.2 | –
129.32 K | – | 242.4 ± 1.3
130 K | 228.2 ± 1.2 | 243.4 ± 1.3
130.42 K | 228.7 ± 1.2 | –
130.69 K | 229 ± 1.2 | –
131.2 K | – | 245.1 ± 1.3
132.35 K | 230.9 ± 1.2 | –
132.62 K | 231.1 ± 1.2 | –
133.08 K | – | 248 ± 1.3
134.29 K | 233.1 ± 1.2 | –
134.56 K | 233.4 ± 1.2 | –
134.97 K | – | 250.8 ± 1.3
136.23 K | 235.3 ± 1.2 | –
136.5 K | 235.6 ± 1.2 | –
136.86 K | – | 253.6 ± 1.3
138.16 K | 237.5 ± 1.3 | –
138.44 K | 237.8 ± 1.3 | –
138.74 K | – | 256.4 ± 1.3
140 K | 239.7 ± 1.3 | 258.2 ± 1.3
140.11 K | 239.7 ± 1.3 | –
140.38 K | 240 ± 1.3 | –
140.63 K | – | 259.2 ± 1.4
142.05 K | 242 ± 1.3 | –
142.32 K | 242.3 ± 1.3 | –
142.52 K | – | 262 ± 1.4
143.99 K | 244.3 ± 1.3 | –
144.26 K | 244.6 ± 1.3 | –
144.42 K | – | 264.9 ± 1.4
145.93 K | 246.5 ± 1.3 | –
146.2 K | 246.8 ± 1.3 | –
146.31 K | – | 267.8 ± 1.4
147.87 K | 248.8 ± 1.3 | –
148.14 K | 249 ± 1.3 | –
